Source: patent US10214542B2, “Modified macrocyclic compounds” (BAYER PHARMA AKTIENGESELLSCHAFT, priority 2015, dated 2019)

Molecular target: T1, CDK9/CycT1 (Homo sapiens, UniProt P50750)
T1 construct: Recombinant full-length His-tagged human CDK9 and CycT1; His; purchased Invitrogen PV4131; host or cells: insect cells
Test: CDK9/CycT1 high ATP kinase assay (TR-FRET, Method 1b)
Assay type: biochemical
Settings: 2 mM ATP; for IC50: Method 1b; for Selectivity high ATP CDK9 over high ATP CDK2: IC50 (high ATP CDK2)/IC50 (high ATP CDK9): Methods 1b and 2b
Experimental: 1b. CDK9/CycT1 High ATP Kinase Assay
CDK9/CycT1-inhibitory activity of compounds of the present invention at a high ATP concentration after preincubation of enzyme and test compounds was quantified employing the CDK9/CycT1 TR-FRET assay as described in the following paragraphs.
Recombinant full-length His-tagged human CDK9 and CycT1, expressed in insect cells and purified by Ni-NTA affinity chromatography, were purchase from Invitrogen (Cat. No PV4131). As substrate for the kinase reaction biotinylated peptide biotin-Ttds-YISPLKSPYKISEG (C-terminus in amid form) was used which can be purchased e.g. from the company JERINI peptide technologies (Berlin, Germany).
For the assay 50 nl of a 100 fold concentrated solution of the test compound in DMSO was pipetted into a black low volume 384 well microtiter plate (Greiner Bio-One, Frickenhausen, Germany), 2 μl of a solution of CDK9/CycT1 in aqueous assay buffer [50 mM Tris/HCl pH 8.0, 10 mM MgCl2, 1.0 mM dithiothreitol, 0.1 mM sodium ortho-vanadate, 0.01% (v/v) Nonidet-P40 (Sigma)] were added and the mixture was incubated for 15 min at 22° C. to allow pre-binding of the test compounds to the enzyme before the start of the kinase reaction. […] The concentration of CDK9/CycT1 was adjusted depending of the activity of the enzyme lot and was chosen appropriate to have the assay in the linear range, typical concentrations were in the range of 0.5 μg/mL. The reaction was stopped by the addition of 5 μl of a solution of TR-FRET detection reagents (0.2 μM streptavidine-XL665 [Cisbio Bioassays, Codolet, France] and 1 nM anti-RB(pSer807/pSer811)-antibody from BD Pharmingen [#558389] and 1.2 nM LANCE EU-W1024 labeled anti-mouse IgG antibody [Perkin-Elmer, product no. AD0077]) in an aqueous EDTA-solution (100 mM EDTA, 0.2% (w/v) bovine serum albumin in 100 mM HEPES pH 7.5).
The resulting mixture was incubated 1 h at 22° C. to allow the formation of complex between the phosphorylated biotinylated peptide and the detection reagents. Subsequently the amount of phosphorylated substrate was evaluated by measurement of the resonance energy transfer from the Eu-chelate to the streptavidine-XL. Therefore, the fluorescence emissions at 620 nm and 665 nm after excitation at 350 nm was measured in a HTRF reader, e.g. a Rubystar (BMG Labtechnologies, Offenburg, Germany) or a Viewlux (Perkin-Elmer). The ratio of the emissions at 665 nm and at […] was taken as the measure for the amount of phosphorylated substrate. The data were normalised (enzyme reaction without inhibitor=0% inhibition, all other assay components but no enzym=100% inhibition).

T1 sequence (P50750 whole entry): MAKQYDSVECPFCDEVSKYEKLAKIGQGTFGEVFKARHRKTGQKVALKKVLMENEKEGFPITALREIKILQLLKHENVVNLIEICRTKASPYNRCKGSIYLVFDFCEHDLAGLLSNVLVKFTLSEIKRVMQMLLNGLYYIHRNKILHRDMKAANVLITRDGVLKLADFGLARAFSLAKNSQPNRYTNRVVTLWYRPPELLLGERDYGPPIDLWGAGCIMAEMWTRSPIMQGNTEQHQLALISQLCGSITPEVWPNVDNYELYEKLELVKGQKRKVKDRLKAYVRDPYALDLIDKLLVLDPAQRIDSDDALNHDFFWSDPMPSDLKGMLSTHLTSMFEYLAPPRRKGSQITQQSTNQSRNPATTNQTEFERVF
T1 sequence (O60563 whole entry partner): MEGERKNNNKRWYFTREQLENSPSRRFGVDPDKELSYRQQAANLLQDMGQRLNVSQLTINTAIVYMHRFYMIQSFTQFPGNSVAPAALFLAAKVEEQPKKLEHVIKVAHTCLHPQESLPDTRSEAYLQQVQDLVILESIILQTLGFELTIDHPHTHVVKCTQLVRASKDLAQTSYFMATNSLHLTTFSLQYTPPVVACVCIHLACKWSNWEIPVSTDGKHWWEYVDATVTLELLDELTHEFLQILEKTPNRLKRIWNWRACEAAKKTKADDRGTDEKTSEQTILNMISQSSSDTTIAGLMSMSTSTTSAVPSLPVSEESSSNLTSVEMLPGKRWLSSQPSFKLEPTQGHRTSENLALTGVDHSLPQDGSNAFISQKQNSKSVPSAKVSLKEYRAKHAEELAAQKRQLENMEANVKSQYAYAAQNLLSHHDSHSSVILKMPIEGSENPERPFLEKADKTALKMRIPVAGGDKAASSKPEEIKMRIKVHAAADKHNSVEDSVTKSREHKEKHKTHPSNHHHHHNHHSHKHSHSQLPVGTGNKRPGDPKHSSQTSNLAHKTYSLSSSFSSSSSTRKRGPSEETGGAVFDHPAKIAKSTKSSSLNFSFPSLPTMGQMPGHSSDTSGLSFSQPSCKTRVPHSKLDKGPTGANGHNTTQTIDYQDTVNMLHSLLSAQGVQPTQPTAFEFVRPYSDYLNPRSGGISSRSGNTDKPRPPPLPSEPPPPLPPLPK

Structure (SMILES)	IC50	Selectivity high ATP CDK9 over high ATP CDK2: IC50 (high ATP CDK2)/IC50 (high ATP CDK9)
CC(C)(C)OC(=O)N=S(C)(=O)Cc1cc2cc(c1)Nc1ncc(F)c(n1)-c1ccc(F)cc1OCCCCN2 (racemic) [Example 24, (rac)-tert-butyl[{[16,20-difluoro-3,4,5,6-tetrahydro-2H,12H-13,17-(azeno)-11,7-(metheno)-1,6,12,14-benzoxatriazacyclononadecin-9-yl]methyl}(methyl)oxido-λ^6-sulfanylidene]carbamate]	44 nM	>454
CS(=N)(=O)Cc1cc2nc(c1)Nc1cc(c(F)cn1)-c1ccc(F)cc1OCCCCN2 (racemic) [Example 3, (rac)-16,20-Difluoro-9-[(S-methylsulfonimidoyl)methyl]-3,4,5,6-tetrahydro-2H,12H-11,7-(azeno)-13,17-(metheno)-1,6,12,14-benzoxatriazacyclononadecine]	3.9 nM	167
CN1CCCCOc2cc(F)ccc2-c2nc(ncc2F)Nc2cc(CS(C)(=N)=O)cc1c2 (racemic) [Example 23, (rac)-16,20-difluoro-6-methyl-9-[(S-methylsulfonimidoyl)methyl]-3,4,5,6-tetrahydro-2H,12H-13,17-(azeno)-11,7-(metheno)-1,6,12,14-benzoxatriazacyclononadecine]	2.1 nM	629
CS(=N)(=O)Cc1cc2cc(c1)OCCCNc1cc(F)ccc1-c1nc(ncc1F)N2 (racemic) [Example 14, rac-15,19-difluoro-8-[(S-methylsulfonimidoyl)methyl]-1,2,3,4-tetrahydro-16,12-(azeno)-6,10-(metheno)-5,1,11,13-benzoxatriazacyclooctadecine]	1 nM	94
